Measurements taken from patent US20240343733A1, “COMPOUNDS FOR TARGETING DEGRADATION OF IRAK4 PROTEINS” (BIOGEN MA INC., priority 2021, published 2024).

Molecular target: T1, IRAK4 (Canis lupus familiaris, UniProt A0A8I3S726)
T1 sequence (A0A8I3S726 1-460): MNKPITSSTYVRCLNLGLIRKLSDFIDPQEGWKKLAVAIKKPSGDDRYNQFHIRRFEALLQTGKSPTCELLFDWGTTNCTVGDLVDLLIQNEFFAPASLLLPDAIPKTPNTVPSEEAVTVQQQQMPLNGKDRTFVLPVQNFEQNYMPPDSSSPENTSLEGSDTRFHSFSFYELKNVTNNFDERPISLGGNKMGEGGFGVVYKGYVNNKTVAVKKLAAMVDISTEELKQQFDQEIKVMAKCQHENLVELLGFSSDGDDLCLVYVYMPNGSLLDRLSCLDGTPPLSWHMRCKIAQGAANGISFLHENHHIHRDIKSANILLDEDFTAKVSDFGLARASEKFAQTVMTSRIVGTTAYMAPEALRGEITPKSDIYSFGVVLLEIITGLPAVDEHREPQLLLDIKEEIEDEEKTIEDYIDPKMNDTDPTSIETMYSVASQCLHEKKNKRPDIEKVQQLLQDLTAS
Test: Pharmacodynamics (PD) in Male Beagle Dogs, IRAK4 quantitation in PBMCs by nanoLC-MS/MS
Format: in vivo
Details: male beagle dog PBMCs
Method: Assay 4. Pharmacodynamics (PD) in Male Beagle Dogs
Pharmacodynamics (PD) biomarker analyses of male beagle dog PMBCs from the whole blood timepoint samples collected in Assay 3 were performed.
For isolation of PBMCs, the whole blood timepoint samples described in Assay 3 above were processed immediately to ensure high viability of PBMCs. All the samples were processed at 18° C. to 20° C. The freshly collected whole blood (2 mL) was mixed with an equal volume of phosphate buffered saline. This mixture was inverted several times to ensure thorough mixing. The Histopaque® (Catalog no. 10771, Sigma-Aldrich, St. Louis, MO) bottle was inverted several times to ensure uniformity of the medium. A sterile syringe was used to draw 2 mL of Histopaque® medium and added to a sterile centrifuge tube. The whole blood-PBS sample (4 ml) was carefully layered on top of the Histopaque® medium, without mixing. The tube was centrifuge at 600 g for 30 to 40 min at 18° C. to 20° C. with the brakes turned off. The upper layer containing plasma and platelets was withdrawn slowly using a sterile pipette, leaving the PBMC cell layer undisturbed at the interface. The PBMC layer was transferred to a sterile centrifuge tube using a sterile pipette. The PBMCs were washed with 3 volumes (˜6 mL) of Hank's balanced salt solution (HBSS) (Gibco, Grand Island, NY) in the centrifuge tube. The cells were suspended by gently drawing them in and out of a pipette. The tubes were centrifuged at 250 g for 10 to 15 minutes at 18° C. to 20° C. and the supernatant discarded. The PBMCs were then resuspended in 6 to 8 ml of HBSS. For cell counting, the cell suspension was diluted 1:1 with Trypan Blue dye and mixed well. The cell numbers (live and dead) were counted, and cell viability calculated. The cell numbers and cell viability of each PBMC sample were recorded. The tube was centrifuged again at 500 g for 10 min at 18° C. to 20° C. The supernatant was removed, and the cell pellet was frozen at −80° C.
The frozen dog PBMC cell pellets were homogenized in two pellet volumes of lysis buffer (100 mM triethylammonium bicarbonate (TEAB), 4% SDS, 1× Roche protease inhibitor cocktail) by sonicating at 150 watt for 10 seconds in a 4° C. water bath using an E220 focused-ultrasonicator (Covaris, Woburn, MA, USA). Lysates were then clarified by centrifugation at 18,000 g for 20 minutes at 4° C. and protein concentrations were determined by bicinchoninic acid (BCA) assay (ThermoFisher Scientific, Waltham, MA, USA).
For protein digestion, an equal amount of protein was taken from each sample. Proteins were reduced with 10 mM DTT for 10 minutes at 70° C. and alkylated with 25 mM iodoacetamide for 30 minutes in the dark. Tryptic digestion was performed with S-Trap™ method (Protifi, Farmingdale, NY, USA) overnight at 37° C. In brief, samples were mixed with 90% MeOH in 100 mM TEAB containing 10% (w/w) trypsin and loaded onto an in-house packed S-Trap microcolumns. Samples were washed with 90% MeOH in 100 mM TEAB, and digested in 100 mM TEAB for 16 hours at 37° C. The resulting peptides were spiked with five heavy-labeled IRAK4 peptides (Vivitide, LLC, Gardner, MA, USA) at 2 fmol each (column loading), desalted using C18 StageTip, SpeedVac dried, and kept at −80 C until nanoLC-MS/MS analysis.
Peptide analysis was performed on a nanoLC-MS/MS platform composed of a Q Exactive HF mass spectrometer coupled to an EASY-nLC 1200 (ThermoFisher Scientific). Peptides were separated on an EASY-Spray™ C18 column (50 cm×75 am, 2 am) (ThermoFisher Scientific) at 50° C. Mobile phases were 0.1% formic acid in water (A) and 80% acetonitrile, 0.1% formic acid (B). Peptides were eluted with a 100-min method over an effective 80 min gradient from […] to 45% B at a flow rate of 275 nL/min. Peptides were ionized with a spray voltage of 1,800 V. Mass spectrometric data were acquired at parallel reaction monitoring (PRM) mode including five pairs of light and heavy IRAK4 peptides (Table 7 below). […]

| IRAK4 change from vehicle (time 0 h) | IRAK4 change from vehicle (time 2 h) | IRAK4 change from vehicle (time 24 h) | IRAK4 change from vehicle (time 48 h) | IRAK4 change from vehicle (time 96 h) | Structure (SMILES) |
| --- | --- | --- | --- | --- | --- |
| −11% | −57% | −97% | −96% | −95% | CC(C)Oc1cc2nc([C@H]3CC[C@H](CN4CCC(c5ccc6c(c5)n(C)c(=O)n6C5CCC(=O)NC5=O)CC4)CC3)cn2cc1C(=O)Nc1cccn([C@H]2C[C@H]2F)c1=O (stereo partly drawn) [Compound 169, 2-((1R,4S)-4-((4-(1-(2,6-dioxopiperidin-3-yl)-3-methyl-2-oxo-2,3-dihydro-1H-benzo[d]imidazol-5-yl)piperidin-1-yl)methyl)cyclohexyl)-N-(1-((1S,2R)-2-fluorocyclopropyl)-2-oxo-1,2-dihydropyridin-3-yl)-7-isopropoxyimidazo[1,2-a]pyridine-6-carboxamide] |
| +12% | −51% | −97% | −95% | −95% | CC(C)Oc1cc2nc([C@H]3CC[C@H](CN4CCC(c5ccc6c(c5)n(C)c(=O)n6C5CCC(=O)NC5=O)CC4)CC3)cn2cc1C(=O)Nc1cnn2cccnc12 (stereo partly shown) [Compound 48, 2-[4-[[4-[1-(2,6-dioxo-3-piperidyl)-3-methyl-2-oxo-benzimidazol-5-yl]-1-piperidyl]methyl]cyclohexyl]-7-isopropoxy-N-pyrazolo[1,5-a]pyrimidin-3-yl-imidazo[1,2-a]pyridine-6-carboxamide] |
